Where two headings read alike, the source gives them in different places. Blank lines part the entries; values can stand above or below the compound they belong to.
Assays:
[1] = test system: DNA synthesis in CEM cells; experiment: Antimetabolic activity assay, [CH3-3H]dThd incorporation (DNA synthesis), CEM; format: cell-based; settings: Homo sapiens, CCRF-CEM, incorporation into TCA-insoluble material
Experimental: (§1) Radiolabeled precursors of DNA synthesis ([^3H-methyl]dThd), RNA synthesis ([5-^3H]Urd), and protein synthesis ([4,5-^3H]leu) were added to 10^5 CEM cell cultures in the 200 μl-wells of a microtiter plate at 1 μCi for each precursor in the presence of varying concentrations of the test compounds (5-fold dilution series). The cells were allowed to proliferate for 20 hrs at 37° C. in a humidified, CO2-controlled atmosphere. At the end of the incubation period, the contents of the wells were brought onto 25-mm glass fiber filters and further processed for measurement of acid-insoluble radioactivity.

[2] = test system: broad variety of tumor cell lines; experiment: Cytostatic assays, summary over the panel of cell lines (Tables 2-4); format: cell-based
Experimental: (§2) To each well of a 96-well microtiter plate were added 5-7.5×10^4 cells and a given amount of the test compound. The cells were allowed to proliferate for 48 h to 96 h (depending on the nature of the cell line) at 37° C. in a humidified CO2-controlled atmosphere. At the end of the incubation period, the cells were counted in a Coulter Counter (Coulter Electronics Ltd, Harpenden Herts, United Kingdom).

U87 glioma cells = experiment: Cytostatic assay, U87; format: cell-based; settings: Homo sapiens, U-87 MG; Table 3
Procedure, shortened: (§3)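 Test compound was added to wells holding 5-7.5×10^4 cells. After line-specific growth periods of 48 h to 96 h at 37° C in a moist atmosphere with regulated CO2, the number of cells was recorded by Coulter counting.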

MT-4 cells = experiment: Cytostatic assay, MT-4; format: cell-based; settings: Homo sapiens, MT4; Table 2
Procedure, shortened: as §3

[3] = test system: Raji, human B-lymphoma cells; experiment: Cytostatic assay, Raji; format: cell-based; settings: Table 2
Procedure, shortened: as §3

[4] = test system: THP-1, human monocytic cells; experiment: Cytostatic assay, THP-1; format: cell-based; settings: Table 2
Procedure, shortened: as §3

[5] = test system: LNCaP (UZ) prostate cancer cells; experiment: Cytostatic assay, LNCaP (UZ); format: cell-based; settings: Homo sapiens, Table 4
Procedure, shortened: as §3

[6] = test system: PC-3 (UZ) prostate cancer cells; experiment: Cytostatic assay, PC-3 (UZ); format: cell-based; settings: Table 4
Procedure, shortened: as §3

PLC/PRF/5 hepatoma cells = experiment: Cytostatic assay, PLC/PRF/5; format: cell-based; settings: Homo sapiens, Table 4
Procedure, shortened: as §3

[7] = test system: HOS CD4+ osteosarcoma cells; experiment: Cytostatic assay, HOS CD4+; format: cell-based; settings: Homo sapiens; Table 3
Experimental: as §2

HUT-78 cells = experiment: Cytostatic assay, HUT-78; format: cell-based; settings: Homo sapiens, HuT78; Table 2
Procedure, shortened: as §3

[8] = test system: Caki-1 kidney carcinoma cells; experiment: Cytostatic assay, Caki-1; format: cell-based; settings: Homo sapiens, Table 3
Procedure, shortened: as §3

[9] = test system: RNA synthesis in CEM cells; experiment: Antimetabolic activity assay, [5-3H]uridine incorporation (RNA synthesis), CEM; format: cell-based; settings: Homo sapiens, CCRF-CEM, incorporation into TCA-insoluble material
Experimental: as §1

Sup T1 cells = experiment: Cytostatic assay, Sup T1; format: cell-based; settings: Homo sapiens, Table 2, read-out: Cytostatic activity (μM) Sup T 1
Procedure, shortened: as §3

[10] = test system: protein synthesis in CEM cells; experiment: Antimetabolic activity assay, [4,5-3H]leucine incorporation (protein synthesis), CEM; format: cell-based; settings: Homo sapiens, CCRF-CEM, incorporation into TCA-insoluble material
Experimental: as §1

BPH-1 (UZ) = experiment: Cytostatic assay, BPH-1 (UZ); format: cell-based; settings: Homo sapiens, Table 4
Procedure, shortened: as §3

[11] = test system: HL60, human leukemia cells; experiment: Cytostatic assay, HL-60; format: cell-based; settings: Table 2
Procedure, shortened: as §3

[12] = test system: RNA synthesis in Raji cells; experiment: Antimetabolic activity assay, [5-3H]uridine incorporation (RNA synthesis), Raji; format: cell-based; settings: Homo sapiens, incorporation into TCA-insoluble material
Experimental: [The procedure below names another cell line; the source lists this cell line under the same test.] as §1

[13] = test system: HeLa cervix carcinoma cells; experiment: Cytostatic assay, HeLa; format: cell-based, human; settings: Homo sapiens; Table 3; read-out: Cytostatic activity (μM) Hela
Procedure, shortened: as §3

[14] = test system: Daudi, human B-lymphoma cells; experiment: Cytostatic assay, Daudi; format: cell-based; settings: Table 2
Experimental: as §2

[15] = test system: MCF-7 mammary carcinoma cells; experiment: Cytostatic assay, MCF-7; format: cell-based; settings: Homo sapiens, MCF7; Table 3
Procedure, shortened: as §3

[16] = test system: HT29 colorectal carcinoma cells; experiment: Cytostatic assay, HT29; format: cell-based; settings: Homo sapiens, HT-29; Table 3
Procedure, shortened: as §3

MT-2 cells = experiment: Cytostatic assay, MT-2; format: cell-based; settings: Homo sapiens, MT2; Table 2
Procedure, shortened: as §3

[17] = test system: DNA synthesis in Raji cells; experiment: Antimetabolic activity assay, [CH3-3H]dThd incorporation (DNA synthesis), Raji; format: cell-based; settings: Homo sapiens, incorporation into TCA-insoluble material
Experimental: [The procedure below names another cell line; the source lists this cell line under the same test.] as §1

[18] = test system: HEL embryonic lung fibroblast cells; experiment: Cytostatic assay, HEL; format: cell-based; settings: Homo sapiens, Table 3
Procedure, shortened: as §3

[19] = test system: Caki-2 kidney carcinoma cells; experiment: Cytostatic assay, Caki-2; format: cell-based; settings: Homo sapiens, Table 3
Procedure, shortened: as §3

[20] = test system: 22Rv1 (UZ) prostate cancer cells; experiment: Cytostatic assay, 22Rv1 (UZ); format: cell-based; settings: Homo sapiens, Table 4
Procedure, shortened: as §3

[21] = test system: U87 CD4+/CXCR4+/CCR5+ glioma cells; experiment: Cytostatic assay, U87 CD4+/CXCR4+/CCR5+; format: cell-based; settings: Homo sapiens, Glioma cell; Table 3
Experimental: as §2

[22] = test system: DU145 (UZ) prostate cancer cells; experiment: Cytostatic assay, DU145 (UZ); format: cell-based; settings: Homo sapiens, DU-145; Table 4
Procedure, shortened: as §3

[23] = test system: FM3A mammary carcinoma cells; experiment: Cytostatic assay, FM3A; format: cell-based, murine; settings: Mus musculus, Table 3
Procedure, shortened: as §3

HepG2C3A hepatoma cells = experiment: Cytostatic assay, HepG2C3A; format: cell-based; settings: Homo sapiens, HepG2/C3A; Table 4
Procedure, shortened: as §3

[24] = test system: U937, human monocytic cells; experiment: Cytostatic assay, U937; format: cell-based; settings: U-937, Table 2
Procedure, shortened: as §3

[25] = test system: BAEC aortic endothelial cells; experiment: Cytostatic assay, BAEC; format: cell-based, bovine; settings: Bos taurus, Table 3
Procedure, shortened: as §3

[26] = test system: 293T embryonic kidney cells; experiment: Cytostatic assay, 293T; format: cell-based; settings: Homo sapiens, HEK-293T; Table 3
Procedure, shortened: as §3

C8166 cells = experiment: Cytostatic assay, C8166; format: cell-based; settings: Homo sapiens, Table 2
Procedure, shortened: as §3

Molt4/C8 cells = experiment: Cytostatic assay, Molt4/C8; format: cell-based; settings: Table 2
Procedure, shortened: as §3

CEM cells = experiment: Cytostatic assay, CEM; format: cell-based; settings: Homo sapiens, CCRF-CEM
Procedure, shortened: as §3

[27] = test system: protein synthesis in Raji cells; experiment: Antimetabolic activity assay, [4,5-3H]leucine incorporation (protein synthesis), Raji; format: cell-based; settings: Homo sapiens, incorporation into TCA-insoluble material
Experimental: [The procedure below names another cell line; the source lists this cell line under the same test.] as §1

[28] = test system: OST TK- osteosarcoma cells; experiment: Cytostatic assay, OST TK-; format: cell-based; settings: Homo sapiens; Table 3
Procedure, shortened: as §3

[29] = test system: PC3 (rega) prostate cancer cells; experiment: Cytostatic assay, PC3 (rega); format: cell-based; settings: Table 4
Procedure, shortened: as §3

[30] = test system: PNT1A (UZ) prostate cells; experiment: Cytostatic assay, PNT1A (UZ); format: cell-based; settings: Homo sapiens, Table 4
Procedure, shortened: as §3

Huh-7 hepatoma cells = experiment: Cytostatic assay, Huh-7; format: cell-based; settings: Homo sapiens, Table 4
Procedure, shortened: as §3

L1210 cells = experiment: Cytostatic assay, L1210; format: cell-based; settings: Mus musculus, Table 2
Procedure, shortened: as §3

[31] = Homo sapiens, HuT78, range for the seven compounds, MT-4 and HUT-78 cells, read-out: IC50 range, cytostatic activity against MT-4 and HUT-78 cells
[32] = range for the seven compounds against the 5 tumor cell lines, read-out: IC50 range, cytostatic activity against CEM, Molt4/C8, Sup T1, MT-2 and C8166 cells
[33] = Table 1a, read-out: IC50 μM (CEM)
[34] = Table 2, read-out: Cytostatic activity (μM) CEM

IC50 [1]: 6.4 ± 4.1 µM | IC50 [2, 31]: 8.5 to 60 µM | IC50 [2, 32]: 0.22 to 3.4 µM | IC50 (U87 glioma cells): 38 µM | IC50 [3]: 19 ± 4.2 µM | IC50 [4]: 13 ± 1.4 µM | IC50 [5]: 0.43 ± 0.14 µM | IC50 [6]: 1.4 ± 0.071 µM | IC50 (PLC/PRF/5 hepatoma cells): 18 ± 4.2 µM | IC50 [7]: 23 ± 4.2 µM | IC50 (HUT-78 cells): 13 ± 4.2 µM | IC50 [8]: 3.7 ± 1.8 µM | IC50 [9]: 2.6 ± 0.6 µM | IC50 (Sup T1 cells): 1.5 µM | IC50 [10]: 1.4 ± 0.9 µM | IC50 (BPH-1 (UZ)): 39 ± 2.8 µM | IC50 [11]: 4 ± 3.3 µM | IC50 [12]: 68 ± 8 µM | IC50 [13]: 17 ± 2.1 µM | IC50 [14]: 13 ± 0.71 µM | IC50 [15]: 22 ± 3.5 µM | IC50 [16]: 17 ± 7.8 µM | IC50 (MT-2 cells): 2.1 ± 0.071 µM | IC50 [17]: 54 ± 8 µM | IC50 [19]: 4.5 ± 1.9 µM | IC50 [20]: 5.7 ± 2.8 µM | IC50 [21]: 32 ± 2.1 µM | IC50 [22]: 11 ± 7 µM | IC50 [23]: 37 ± 0.71 µM | IC50 (HepG2C3A hepatoma cells): 8.6 ± 0.28 µM | IC50 [24]: 10 ± 0.85 µM | IC50 [25]: 20 ± 4.2 µM | IC50 (C8166 cells): 3 ± 0.21 µM | IC50 (Molt4/C8 cells): 0.81 ± 0.49 µM | IC50 (CEM cells; [33]): 1.8 µM | IC50 (CEM cells; [34]): 1.8 ± 0.92 µM | IC50 [27]: 45 ± 8 µM | IC50 [28]: 7.6 ± 2.4 µM | IC50 [29]: 0.71 ± 0.28 µM | IC50 [30]: 17 ± 2.8 µM | IC50 (Huh-7 hepatoma cells): 3.4 ± 1.2 µM
Structure (SMILES): COC(=O)c1cc(CCc2ccccc2OC)sc1N [TR567, 2-Amino-5-[2-(2-methoxy-phenyl)-ethyl]-thiophene-3-carboxylic acid methyl ester]
IC50 (MT-4 cells): 14 ± 2.8 µM | IC50 [18]: 20 ± 7.8 µM | IC50 [26]: 22 ± 15 µM

IC50 [1]: 2.3 ± 1 µM | IC50 [2, 31]: 8.5 to 60 µM | IC50 [2, 32]: 0.22 to 3.4 µM | IC50 (U87 glioma cells): 37 ± 2.8 µM | IC50 (L1210 cells): 40 ± 2 µM | IC50 [3]: 48 ± 1.4 µM | IC50 [4]: 44 ± 1.4 µM | IC50 [5]: 0.26 ± 0.081 µM | IC50 [6]: 0.96 ± 0.2 µM | IC50 (PLC/PRF/5 hepatoma cells): 41 ± 6.4 µM | IC50 [7]: 35 ± 7.1 µM | IC50 (HUT-78 cells): 44 ± 6.4 µM | IC50 [8]: 5.3 ± 2.2 µM | IC50 [9]: 0.66 ± 0.01 µM | IC50 (Sup T1 cells): 1.5 ± 0.14 µM | IC50 [10]: 0.2 ± 0.07 µM | IC50 (BPH-1 (UZ)): 41 ± 1.4 µM | IC50 [11]: 6.2 ± 8.5 µM | IC50 [12]: 60 ± 57 µM | IC50 [13]: 42 ± 5.5 µM | IC50 [14]: 43 ± 2.8 µM | IC50 [15]: 42 ± 0.71 µM | IC50 [16]: 48 ± 23 µM | IC50 (MT-2 cells): 1.5 ± 0.21 µM | IC50 [17]: ≥ 100 µM | IC50 [19]: 88 ± 17 µM | IC50 [20]: 6.3 ± 2.5 µM | IC50 [21]: 28 ± 3.5 µM | IC50 [22]: 9.3 ± 8.4 µM | IC50 [23]: 40 ± 3.5 µM | IC50 (HepG2C3A hepatoma cells): 12 ± 2.1 µM | IC50 [24]: 41 ± 1.4 µM | IC50 [25]: 16 ± 16 µM | IC50 (C8166 cells): 2.8 ± 0.14 µM | IC50 (Molt4/C8 cells): 0.22 µM | IC50 (CEM cells; [33]): 0.7 µM | IC50 (CEM cells; [34]): 0.73 ± 0.62 µM | IC50 [27]: ≥ 100 µM | IC50 [28]: 3.8 ± 1.7 µM | IC50 [29]: 0.29 ± 0.14 µM | IC50 [30]: 38 ± 7.8 µM | IC50 (Huh-7 hepatoma cells): 1.5 ± 0.28 µM
Structure (SMILES): CCOC(=O)c1cc(C#Cc2ccc(OC)cc2)sc1N [TR530, 2-Amino-5-(4-methoxy-phenylethynyl)-thiophene-3-carboxylic acid ethyl ester]
IC50 (MT-4 cells): 22 ± 15 µM | IC50 [18]: 35 ± 13 µM | IC50 [26]: 37 ± 0.71 µM

From patent US9278958B2, “Anti-cancer compounds” (KATHOLIEKE UNIVERSITEIT LEUVEN, priority 2012, dated 2016)
